# Measurements as given in patent publication US9388112B2, “Bisphenol derivatives and their use as androgen receptor activity modulators” (The University of British Columbia, priority 2010, dated 2016).
# Target: T1, androgen receptor (AR) (Homo sapiens, UniProt P10275, T878A)
# T1 construct: LNCaP cells express endogenous AR; endogenous in cells; host or cells: LNCaP cells
# T1 sequence (P10275 1-920 T878A): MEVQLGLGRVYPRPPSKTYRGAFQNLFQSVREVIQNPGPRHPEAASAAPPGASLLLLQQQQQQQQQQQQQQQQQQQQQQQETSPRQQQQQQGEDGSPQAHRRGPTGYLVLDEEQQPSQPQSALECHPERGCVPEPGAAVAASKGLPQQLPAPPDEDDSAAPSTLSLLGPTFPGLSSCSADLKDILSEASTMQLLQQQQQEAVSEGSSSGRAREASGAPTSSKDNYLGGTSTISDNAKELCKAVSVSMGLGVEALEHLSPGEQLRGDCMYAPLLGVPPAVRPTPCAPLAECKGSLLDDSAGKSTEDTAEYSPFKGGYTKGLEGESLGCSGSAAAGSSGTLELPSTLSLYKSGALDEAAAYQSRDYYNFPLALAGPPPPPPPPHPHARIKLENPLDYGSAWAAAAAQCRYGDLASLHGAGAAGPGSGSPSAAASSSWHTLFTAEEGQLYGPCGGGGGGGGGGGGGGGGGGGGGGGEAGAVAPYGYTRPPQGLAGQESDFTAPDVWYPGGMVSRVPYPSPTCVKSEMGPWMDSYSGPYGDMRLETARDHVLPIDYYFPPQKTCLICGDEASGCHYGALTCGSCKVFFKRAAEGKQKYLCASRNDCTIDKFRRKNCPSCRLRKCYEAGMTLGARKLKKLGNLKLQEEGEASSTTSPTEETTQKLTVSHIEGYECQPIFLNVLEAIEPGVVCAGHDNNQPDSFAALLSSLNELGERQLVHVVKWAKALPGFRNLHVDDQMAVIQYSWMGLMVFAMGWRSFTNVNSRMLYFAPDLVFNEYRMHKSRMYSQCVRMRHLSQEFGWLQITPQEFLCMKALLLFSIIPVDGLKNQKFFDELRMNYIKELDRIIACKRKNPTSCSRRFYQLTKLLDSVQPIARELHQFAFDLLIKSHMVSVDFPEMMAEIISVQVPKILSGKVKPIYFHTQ
# Experiment: LNCaP PSA (6.1 kb)-luciferase assay (R1881-induced)
# Type: cell-based
# Conditions: FIG. 7A, 1 μM to 35 μM
# Source text: LNCaP cells were employed initially for all experiments because they are well-differentiated human prostate cancer cells in which ligand-independent activation of the AR by FSK has been characterized (Nazareth et al 1996 J. Biol. Chem. 271, 19900-19907; and Sadar 1999 J. Biol. Chem. 274, 7777-7783). LNCaP cells express endogenous AR and secrete prostate-specific antigen (PSA) (Horoszewicz et al 1983 Cancer Res. 43, 1809-1818). LNCaP cells can be grown either as monolayers in cell culture or as tumors in the well-characterized xenograft model that progresses to androgen independence in castrated hosts (Sato et al 1996 J. Steroid Biochem. Mol. Biol. 58, 139-146; Gleave et al 1991 Cancer Res. 51, 3753-3761; Sato et al 1997 Cancer Res. 57, 1584-1589; and Sadar et al 2002 Mol. Cancer Ther. 1(8), 629-637). […] Small molecules that specifically target the AR-NTD should have no effect on PC3 cells. This means that they should not alter the proliferation of PC3 cells if they specifically block the AR to mediate their inhibitory effects. R1881 was employed since it is stable and avoids problems associated with the labile physiological ligand dihydrotestosterone (DHT). Reporter specificity may be determined using several alternative reporter gene constructs. Some well characterized ARE-driven reporter gene constructs that have been used extensively are the PSA (6.1 kb) enhance/promoter which contains several AREs and is highly inducible by androgens as well as by FSK (Ueda et al 2002 A J. Biol. Chem. 277, 7076-7085) and the ARR3-thymidine kinase (tk)-luciferase, which is an artificial reporter construct that contains three tandem repeats of the rat probasin ARE1 and ARE2 regions upstream of a luciferase reporter (Snoek et al 1996 J. Steroid Biochem. Mol. Biol. 59, 243-250).
# LNCaP cells were transiently cotransfected with PSA (6.1 kb)-luciferase (0.25 μg/well) in 24-well plates for 24 h prior to pre-treatment with compounds for 1 hour before the addition of synthetic androgen, R1881 (1 nM) to induce PSA production or vehicle. The total amount of plasmid DNA transfected was normalized to 0.75 μg/well by the addition of the empty vector. After 48 h of incubation with R1881, the cells were harvested, and relative luciferase activity was determined. Test compounds were added to the cells at various concentrations and activity for each treatment was normalized to the predicted maximal activity induction (in the absence of test compounds, vehicle only). Plotting of sigmoidal curves (Boltzmann Function) and IC50 calculations were done using OriginPro 8.1 Sofware (Northampton, Mass., USA).
# Using the LNCaP PSA (6.1 kb)-luciferase assay described above, various compounds described herein were tested against DMSO and EPI-001 controls. In FIG. 1, a comparison is made between EPI-035 and DMSO and EPI-001 or EPI-026 from 1 μM to 10 μM. […] In FIGS. 3A and 3B, EPI-040 and EPI-051 are compared to DMSO and EPI-001 at 1 μM to 30 μM and 2.5 μM to 35 μM respectively. In FIGS. 4A and 4B, EPI-043 is compared to DMSO and EPI-001 at 5 μM to 35 μM 0.25 μM to 25 μM respectively.
# Similarly, in FIG. 7B concentrations of EPI-6000, EPI-6001, EPI-6002, and EPI-6003 are shown at 12.5 μM and 25 μM as compared to the DMSO control.
row,Structure (SMILES),dose response as compared to the DMSO control
1,OC(CCl)COc1ccccc1Cc1ccccc1OCC(O)CCl (stereo not drawn) [EPI-900],showed a dose response

# Same assay, conditions: LNCaP PSA (6.1 kb)-luciferase assay, versus DMSO and EPI-001 controls
row,Structure (SMILES),androgen receptor modulating activity
1,CC(=O)OCCOc1ccc(C(C)(C)c2ccc(OCCCCl)cc2)cc1 [EPI-037],showed androgen receptor modulating activity
2,CC(C)(c1ccc(OCC(O)CCl)cc1)c1ccccc1OCC(O)CO (stereo not drawn) [EPI-6002],showed androgen receptor modulating activity
3,CC(C)(c1ccc(OCC(O)CCl)cc1)c1ccccc1OCC(O)CO (stereo not drawn) [EPI-6001],showed androgen receptor modulating activity
4,CC(C)(c1ccc(OCC(O)CCl)cc1)c1ccccc1OCC(O)CO (stereo not drawn) [EPI-6003],showed androgen receptor modulating activity
5,C#CCOc1ccc(C(C)(C)c2ccc(OC[C@@H](O)CCl)cc2)cc1 [EPI-046],showed androgen receptor modulating activity
6,CC(C)(c1ccc(OCCO)cc1)c1ccc(OCCCCl)cc1 [EPI-035],showed androgen receptor modulating activity
7,OC(CCl)COc1ccccc1Cc1ccccc1OCC(O)CCl (stereo not drawn) [EPI-900],showed androgen receptor modulating activity
8,CC(C)(c1ccc(OCCCCl)cc1)c1ccc(OCCCCl)cc1 [EPI-038],showed androgen receptor modulating activity
9,CC(C)(c1ccc(OCCCCCCCl)cc1)c1ccc(OCCOCCOCCO)cc1 [EPI-043],showed androgen receptor modulating activity
10,CC(C)(c1ccc(OCC(O)CCl)cc1)c1ccccc1OCC(O)CO (stereo not drawn) [EPI-6000],showed androgen receptor modulating activity
11,CC(C)(c1ccc(O)cc1)c1ccc(OCCOCCOCCO)cc1 [EPI-040],showed androgen receptor modulating activity
12,C#CCOc1ccc(C(C)(C)c2ccc(OC[C@H](O)CCl)cc2)cc1 [EPI-047],showed androgen receptor modulating activity
13,C#CCOc1ccc(C(C)(C)c2ccc(OCC(O)CO)cc2)cc1 (stereo not drawn) [EPI-051],showed androgen receptor modulating activity

# Same assay, conditions: LNCaP cells transfected with PSA (6.1 kb)-luciferase, 1 h pre-treatment, R1881 1 nM, 48 h
row,Structure (SMILES),EXPERIMENTAL DATA (activity in the described assays)
1,C#CCOc1ccc(C(C)(C)c2ccc(OCC(O)CO)cc2)cc1 (centres unmarked) [drawing 877],Active
2,OC(CCl)COc1ccccc1Cc1ccccc1OCC(O)CCl (centres unmarked) [drawing 878],Active
3,C#CCOc1ccc(C(C)(C)c2ccc(OC[C@@H](O)CCl)cc2)cc1 [drawing 875],Active
4,CC(=O)OCCOc1ccc(C(C)(C)c2ccc(OCCCCl)cc2)cc1 [drawing 870],Active
5,CC(C)(c1ccc(OCC(O)CCl)cc1)c1ccccc1OCC(O)CO (centres unmarked) [drawing 879],Active
6,CC(C)(c1ccc(OCCCCCCCl)cc1)c1ccc(OCCOCCOCCO)cc1 [drawing 874],Active
7,C#CCOc1ccc(C(C)(C)c2ccc(OC[C@H](O)CCl)cc2)cc1 [drawing 876],Active
8,CC(C)(c1ccc(OCCCCl)cc1)c1ccc(OCCCCl)cc1 [drawing 871],Active
9,CC(C)(c1ccc(OCCO)cc1)c1ccc(OCCCCl)cc1 [drawing 869],Active
